Earlier results as cited in patent US8287898B2, “Compositions and methods for body weight management” (The Procter & Gamble Company, priority 2000, dated 2012).
Like-named read-outs stand apart in the source and are kept apart here.

Key:
[1] = jejunally infused neat, 0.2 mL/hr for seven hours, rats
[2] = sham feeding rat model
[3] = solutions infused in the duodenum or mid-gut (jejunum), or into the colon; rats, three hours of feeding

In the case of `CCCCC/C=C\C/C=C\CCCCCCCC(=O)O` [linoleic acid], the “total daily caloric intake” value [1] is listed as “significantly reduce”, the total caloric intake ([2]; duodenally infused emulsion) is listed as “reduce total caloric intake” and the total caloric intake ([2]; ileal infusion) is listed as “do not”.
For `N[C@@H](Cc1ccccc1)C(=O)O` [phenylalanine], the total caloric intake [3] is listed as “suppressed total caloric intake”.
For `CC/C=C\C/C=C\C/C=C\CCCCCCCC(=O)O` [linolenic], the total caloric intake ([2]; duodenally infused emulsion) is listed as “somewhat less effective”.
For `CCCCCCCC/C=C\CCCCCCCC(=O)O` [oleic acid], the “total daily caloric intake” value [1] is given as “significantly reduce” and the total caloric intake ([2]; duodenally infused emulsion) is given as “somewhat less effective”.
In the case of `N[C@@H](Cc1c[nH]c2ccccc12)C(=O)O` [tryptophan], the total caloric intake [3] is listed as “suppressed total caloric intake”.
